Source: article PMC13576449, “Small-Molecule Activators of PRMT1: Discovery, SAR Analyses, and Proapoptotic Effects in Pancreatic Cancer Cells” (Journal of Medicinal Chemistry, 2026)
Read-outs that look alike come from different tables or passages of the source.

Experiments:
[1] = test system: FLAG-tagged PRMT1 or His-tagged PRMT1; test: Radioactive in vitro methyltransferase assay, autoradiography (core histones or GST-GAR); type: biochemical, rat, human; conditions: 100 μM compound, [14C]-methyl-SAM, vs DMSO-treated control
Source text: Given that the effects of the PRMT1 activators had been screened and quantified so far using the F-PRMT assay, we next assessed the efficacy of the selected compounds in stimulating PRMT1-mediated methylation of natural substrates. To this end, we conducted in vitro methyltransferase assays using recombinant PRMT1 and core histones or GST-tagged GAR (glycine-arginine-rich domain of fibrillarin) as substrates of PRMT1. , Addition of the cofactor [^14C]-methyl-SAM allowed for the visualization of radiolabeled methyl group incorporation into the substrate proteins by SDS-PAGE and autoradiography or by liquid scintillation counting. […] It is important to note that PRMT1 methylates both H2A and H4, albeit with variable efficiency. […] As a result, the methylation signals of both histones were considered in the quantification process (Figure A, B).
As negative control (Ctrl (−)), PRMT1 enzymes and [^14C-methyl]-SAM were incubated without substrates. Subsequently, samples were separated by SDS-PAGE, blotted, and analyzed by autoradiography. Substrates (H2A, H4 or GST-GAR) and molecular weights (kDa) of the protein marker are indicated. Black lines designate composite images, assembled from the same blots and exposure times. The methylation signals of the substrates were densitometrically quantified, and expressed relative to the DMSO-treated control, as indicated by the numbers below the autoradiographs. Representative results are depicted, with quantification graphs (below the autoradiographs in A and B) summarizing biological replicates. […] Subsequently, GST-GAR was immobilized on glutathione-beads and PRMT1 activity was measured by quantifying the incorporation of ^14C-methyl groups (in cpm) using liquid scintillation counting. […] Cell viability was quantified using the CellTiter-Glo assay. Viability of compound-treated cells is shown in % relative to the viability of solvent-treated cells, which was set to 100% (mean ± SD, n = 3), and then plotted against the logarithm of the compound concentrations. Concentration-viability curves were fitted by nonlinear regression, with the half-maximal inhibitory concentration (IC50) of the compounds for PANC-1 cell viability and the coefficient of determination (R^2) indicated. […] Subsequently, whole-cell extracts were prepared and analyzed by Western blot using antibodies against ADMA, ACTIN (ACT), and VINCULIN (VINC), of which the latter two stainings served as loading controls. Molecular weights (kDa) of the protein marker are indicated. All the ADMA signals per lane were densitometrically quantified, normalized to the signal of the respective loading control and expressed relative to the DMSO-treated control, as indicated by the numbers below the immunostainings. […]

FLAG-tagged PRMT1 = target: T1, FLAG-tagged PRMT1 (Rattus norvegicus, UniProt Q63009); test: Liquid in vitro methyltransferase assay, scintillation counting (GST-GAR); type: biochemical; conditions: 200 μM compound, except TR-033 100 μM; vs DMSO control
T1 construct: Full-length FLAG-tagged PRMT protein; made in house; host or cells: Sf9 insect cells (baculovirus)
T1 sequence (Q63009 whole entry): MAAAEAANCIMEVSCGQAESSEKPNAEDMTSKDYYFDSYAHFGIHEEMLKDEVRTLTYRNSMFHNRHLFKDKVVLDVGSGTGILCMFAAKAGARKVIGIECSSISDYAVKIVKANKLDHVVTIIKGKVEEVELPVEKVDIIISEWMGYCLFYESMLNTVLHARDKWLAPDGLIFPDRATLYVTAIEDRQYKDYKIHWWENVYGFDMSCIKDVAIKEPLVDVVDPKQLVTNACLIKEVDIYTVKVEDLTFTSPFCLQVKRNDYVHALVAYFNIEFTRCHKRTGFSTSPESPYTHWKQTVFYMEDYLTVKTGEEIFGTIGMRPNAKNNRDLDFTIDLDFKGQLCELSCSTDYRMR
Experimental: (§1) As negative control (Ctrl (−)), PRMT1 enzymes and [^14C-methyl]-SAM were incubated without substrates. Subsequently, samples were separated by SDS-PAGE, blotted, and analyzed by autoradiography. Substrates (H2A, H4 or GST-GAR) and molecular weights (kDa) of the protein marker are indicated. Black lines designate composite images, assembled from the same blots and exposure times. The methylation signals of the substrates were densitometrically quantified, and expressed relative to the DMSO-treated control, as indicated by the numbers below the autoradiographs. Representative results are depicted, with quantification graphs (below the autoradiographs in A and B) summarizing biological replicates. […] Subsequently, GST-GAR was immobilized on glutathione-beads and PRMT1 activity was measured by quantifying the incorporation of ^14C-methyl groups (in cpm) using liquid scintillation counting. […] Cell viability was quantified using the CellTiter-Glo assay. Viability of compound-treated cells is shown in % relative to the viability of solvent-treated cells, which was set to 100% (mean ± SD, n = 3), and then plotted against the logarithm of the compound concentrations. Concentration-viability curves were fitted by nonlinear regression, with the half-maximal inhibitory concentration (IC50) of the compounds for PANC-1 cell viability and the coefficient of determination (R^2) indicated. […] Subsequently, whole-cell extracts were prepared and analyzed by Western blot using antibodies against ADMA, ACTIN (ACT), and VINCULIN (VINC), of which the latter two stainings served as loading controls. Molecular weights (kDa) of the protein marker are indicated. All the ADMA signals per lane were densitometrically quantified, normalized to the signal of the respective loading control and expressed relative to the DMSO-treated control, as indicated by the numbers below the immunostainings.
For the liquid methyltransferase assays, the reaction mixtures, containing 1–2 μg eluted FLAG-tagged PRMT1 and as the substrate 1–2 μg eluted GST-GAR protein at a total volume of 20 μL in PBS, were preincubated in the absence (DMSO) or presence of compounds at room temperature and under agitation (800 rpm) for 30 min. […] After washing, 1 mL scintillation liquid (Rotiszint ecoplus, Roth) was added to the bead-bound GST-GAR and incorporated ^14C-methyl groups were quantified using a scintillation counter (LS6500, Beckman Coulter). Background signal was determined using 1 mL of scintillation fluid alone and was subtracted from the measured counts of the enzymatic reactions. Compound-treated PRMT1 activity was expressed as background-corrected counts (in cpm) normalized to the DMSO control.

PANC-1 cells = test: Cell viability, CellTiter-Glo assay, PANC-1; type: cell-based, human; conditions: n = 3, read-out: half-maximal inhibitory concentration (IC50) for PANC-1 cell viability
Experimental: as §1
Cell viability was assessed using the CellTiter-Glo assay (Promega) according to the manufacturer’s instructions. Briefly, PANC-1 and PaTu8988T cells were seeded as triplicates in 96 well plates (5 × 10^3 cells/well) and allowed to adhere for 3–4 h, followed by treatment with the compounds at 11–12 concentrations spanning 0.028–120 μM for 96 h, with DMSO (solvent) treated cells serving as control. Subsequently, cell viability was quantified by measuring luminescence on a microplate reader, and the signal of compound-treated cells was normalized to the signal of the solvent-treated control, which was set to 100%. Cell viability in % was plotted against the logarithm of the compound concentration, and concentration-response curves were fitted by nonlinear regression using a three-parameter logistic model to determine half-maximal inhibitory concentrations (IC50).

`CN(C)Cc1cccc(CN/C=C2\C(=O)NC(=O)c3ccccc32)c1.Cl` [TR-07, (Z)-1-[3-({[(1,3-Dioxo-2,3-dihydroisoquinolin-4(1H)-lidene)methyl]amino}methyl)phenyl]-N,N-dimethylmethanaminium chloride] was tested, and the “PRMT1 methylation activity toward histones H2A and H4 and GAR, autoradiography” value [1] was “increased”, the “PRMT1 methylation activity toward GST-GAR, liquid scintillation counting” value (FLAG-tagged PRMT1) was “increased” and the IC50 (PANC-1 cells; Homo sapiens, PANC-1, 96 h) was 45 µM.

In the case of `CN(C)Cc1cccc(-c2ccc3[nH]c(=O)c4ccccc4c3c2)c1` [TR-033, 2-{3-[(Dimethylamino)methyl]phenyl}phenanthridin-6(5H)-One], the “PRMT1 methylation activity toward histones H2A and H4 and GAR, autoradiography” value [1] is reported as “increased”, the “PRMT1 methylation activity toward GST-GAR, liquid scintillation counting” value (FLAG-tagged PRMT1) is reported as “increased” and the IC50 (PANC-1 cells; Homo sapiens, PANC-1, 96 h) is reported as 10 µM.

`CCN(CC)Cc1cccc(N/C=C2\C(=O)NC(=O)c3ccccc32)c1.Cl` [TR-036, (Z )-N-(3-{[(1,3-Dioxo-2,3-dihydroisoquinoline-4(1 H )-ylidene)methyl]amino}benzyl)-N -ethylethanaminium chloride] was tested, and the “PRMT1 methylation activity toward histones H2A and H4 and GAR, autoradiography” value [1] was “increased”, the “PRMT1 methylation activity toward GST-GAR, liquid scintillation counting” value (FLAG-tagged PRMT1) was “increased” and the IC50 (PANC-1 cells; Homo sapiens, PANC-1, 96 h) was 32 µM.

“(Z)-2-(2-{[(1,3-Dioxo-2,3-dihydroisoquinolin-4(1H)-ylidene)methyl]amino}phenyl)-N,N-dimethylethan-1-aminium chloride [ICTR-059]” was tested, and the “PRMT1 methylation activity toward histones H2A and H4 and GAR, autoradiography” value [1] was “increased”, the “PRMT1 methylation activity toward GST-GAR, liquid scintillation counting” value (FLAG-tagged PRMT1) was “increased” and the IC50 (PANC-1 cells; 96 h) was 19 µM.
